Measurements: the supplement of paper PMC6723410

Tested on: GUMC-403
Assay: viability at highest tested concentration (max response) relative to DMSO (% of DMSO control); higher = less cytotoxic
Settings: library / dose series: MIPE library, 11-point 1:3 dilution, 48 h
How it was run: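 Each figure stands for viability at the highest tested concentration compared with vehicle control. It was measured by CellTiter-Glo luminescence on a ViewLux after 48 h of exposure to 23 nL of pinned compound, with vehicle wells taken as 100% and empty wells as 0%. The cells were patient-derived GUMC-403 papilloma cells grown by conditional reprogramming, plated at 700/well in 5 μL F + Y medium in 1536-well plates.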

| SMILES | viability (top concentration 46.1 µM) | also measured |
| --- | --- | --- |
| O=C(c1ccc(F)cc1)C1CCN(CCn2c(=O)[nH]c3ccccc3c2=O)CC1 | 110 |  |
| C[N+](C)(C)CC(=O)O.[Cl-] | 113 |  |
| O=C(CCc1ccc(O)cc1)c1c(O)cc(O)cc1O | 107 |  |
| C/C=C/C(=O)N(CC)c1ccccc1C | 110 |  |
| CN[C@H](CC(C)C)C(=O)N[C@H]1C(=O)N[C@@H](CC(N)=O)C(=O)N[C@H]2C(=O)N[C@H]3C(=O)N[C@H](C(=O)N[C@H](C(=O)O)c4cc(O)cc(O)c4-c4cc3ccc4O)[C@H](O)c3ccc(c(Cl)c3)Oc3cc2cc(c3O[C@@H]2O[C@H](CO)[C@@H](O)[C@H](O)[C@H]2O[C@H]2C[C@](C)(N)[C@H](O)[C@H](C)O2)Oc2ccc(cc2Cl)[C@H]1O | 119 |  |
| COCCCOc1ccnc(C[S+]([O-])c2nc3ccccc3[n-]2)c1C (configuration not stated) | 120 |  |
| CN(C)CCOc1ccc(-c2nc(-c3ccncc3)c(-c3ccc4c(c3)CC/C4=N\O)[nH]2)cc1 | 94.9 |  |
| N[C@H]2CN(CC12CC1)c3c(F)cc4c(c3Cl)[N@@](C=C(C4=O)C(=O)O)C5C[C@H]5F (some centres not stated) | 103 |  |
| CC1=C(/C=C/C(C)=C/C=C/C(C)=C/C(=O)O)C(C)(C)CCC1 | 86.6 |  |
| COC1=CC=C(C=C1)/C2=C(O)/C(=O)C3=C(O)C=C(O)C(=C3O2)CC=C(C)C | 138 |  |
| C[C@](Cc1c[nH]c2ccccc12)(NC(=O)OC1C2CC3CC(C2)CC1C3)C(=O)NC[C@H](NC(=O)CCC(=O)O)c1ccccc1 (some centres not stated) | 103 |  |
| Cc1nc2c([nH]1)-c1ccccc1N(C(=O)c1ccc(NC(=O)c3ccccc3-c3ccccc3)cc1)CC2 | 126 |  |
| Cc1ccc(C)c(OCCCC(C)(C)C(=O)O)c1 | 108 |  |
| C[N]1C=NC=C1[C@@](N)(C2=CC=C(Cl)C=C2)C3=CC=C4N(C)C(=O)\C=C(\C5=CC=CC(=C5)Cl)C4=C3 | 96.3 |  |
| CCCCC(C=O)NC(=O)C(CC(C)C)NC(=O)OCc1ccccc1 (configuration not stated) | 82 |  |
| N=C(N)c1ccc(OCCCCCOc2ccc(C(=N)N)cc2)cc1 | 101 |  |
| CN1CCCN(C(=O)c2cccc(-c3ccc(/C=C4/C(=O)Nc5ccc(Cl)cc54)o3)c2)CC1 | 97.7 |  |
| CC(C)(S)[C@@H](N)C(=O)O | 128 |  |
| CC1=NN(c2ccc(C)c(C)c2)C(=O)/C1=N/Nc1cccc(-c2cccc(C(=O)O)c2)c1O | 101 |  |
| COC(=O)C\1=C(C)\N\C(=C(/C1C2=CC=CC3=NON=C23)C(=O)OC(C)C)C (configuration not stated) | 89.7 |  |
| CC#CCn1c(N2CCC[C@@H](N)C2)nc2c1c(=O)n(Cc1nc(C)c3ccccc3n1)c(=O)n2C | 111 |  |
| COc1cc(O)c2c(c1)C1OC1C[C@H](O)[C@H](O)C(=O)/C=C\C[C@H](C)OC2=O (some centres not stated) | 107 |  |
| C[C@]12CC[C@@H]3c4ccc(O)cc4CC[C@H]3[C@@H]1C[C@@H](O)[C@@H]2O | 87 |  |
| COc1cnc(N[S+](=O)([O-])c2ccc(N)cc2)nc1 | 115 |  |

| SMILES | viability (top concentration 46.1 µM) | also measured |
| --- | --- | --- |
| O=C(NCc1ccccc1)[C@H](Cc1ccccc1)NC(=O)[C@H]1O[C@@H]1C(=O)NCCc1ccc(O)cc1 | 107 |  |
| CC(C)c1ccc2c(c1)c(SC(C)(C)C)c(CC(C)(C)C(=O)[O-])n2Cc1ccc(Cl)cc1 | 115 |  |
| CN1C(=O)C(=C/2N(C(=O)N(C3CC3)C(=O)C2=C1/NC4=CC=C(I)C=C4F)C5=CC=CC(=C5)NC(C)=O)\C | 87.7 |  |
| C[N]1C=C(C=N1)C2=CC=C3N=CC\4=C(N(C(=O)\C=C4)C5=CC6=C(CCN6C(=O)C=C)C=C5)C3=C2 | 104 |  |
| COc1cc(CNC(=O)CCCC/C=C/C(C)C)ccc1O | 128 |  |
| Cc1ccc(C(=O)Nc2cccc(C(F)(F)F)c2)cc1-c1ccc2nc(NCCN3CCOCC3)ncc2c1 | 55.5 |  |
| CC[C@]1(O)C[C@@H]2CN(CCc3c([nH]c4ccccc34)[C@@](C(=O)OC)(c3cc4c(cc3OC)N(C)[C@H]3[C@@](O)(C(N)=O)[C@H](O)[C@]5(CC)C=CCN6CC[C@]43[C@@H]65)C2)C1 | 114 |  |
| CCCN[S+](=O)([O-])Nc1ncnc(OCCOc2ncc(Br)cn2)c1-c1ccc(Br)cc1 | 122 |  |
| O=C(O)Cn1nnc(-c2cc(N3CCC(Oc4cc(F)ccc4Br)CC3)no2)n1 | 128 |  |
| O=C(CCN1CCN(C(=O)OCc2cc(Cl)cc(Cl)c2)CC1)c1ccc2[nH]c(=O)oc2c1 | 109 |  |
| CCC(=C/[C@H](C)C/C=C/C(C)=C/[C@@H](C)C(=O)[C@@H](C)[C@H](O)[C@@H](C)C/C(C)=C/C(=O)O)/C=C/[C@@H]1OC(=O)C=C[C@@H]1C |  | viability (top concentration 1.84 µM): 97.2 |
| CCOC(=O)C(C)(C)Oc1ccc(Cl)cc1 | 110 |  |
| FC(F)(F)c1ccc(/C=C/c2nc(COc3ccc(CCCCn4ccnn4)cc3)co2)cc1 | 98.1 |  |
| CCc1cc(Nc2nccc(-c3c(-c4ccc(OC)c(C(=O)Nc5c(F)cccc5F)c4)nc4ccccn34)n2)c(OC)cc1N1CCC(N2CCN([S+](C)(=O)[O-])CC2)CC1 | 122 |  |
| CN1C(=O)/C(=C(NC2=CC=C(I)C=C2F)\C3=C1\N=C/N(C[C@@H](O)CO)C3=O)F | 28.9 |  |
| NC(=O)N1c2ccccc2CC(=O)c2ccccc21 | 111 |  |
| Nc1ccc([S+](=O)([O-])Nc2ncccn2)cc1 | 131 |  |
| CC(=O)Oc1ccccc1C(=O)Nc1ncc([N+](=O)[O-])s1 |  | viability (top concentration 92.2 µM): 82.2 |
| Cc1cc(SCc2sc(-c3ccc(C(F)(F)F)c(F)c3)nc2C)ccc1OCC(=O)O | 127 |  |
| COc1ccc(CCN2CCN(CCCc3ccccc3)CC2)cc1OC | 120 |  |
| C[C@H](c1ccc(F)cc1CCCC(=O)O)N(c1cc(F)ccc1F)[S+](=O)([O-])c1ccc(Cl)cc1 | 93.9 |  |
| Cc1c(N)nc([C@H](CC(N)=O)NC[C@@H](N)C(N)=O)nc1C(=O)N[C@H](C(=O)N[C@@H](C)[C@H](O)[C@@H](C)C(=O)N[C@@H](C(=O)NCCc1nc(-c2nc(C(=O)NCCC[S+](C)C)cs2)cs1)[C@@H](C)O)C(O[C@H]1O[C@H](CO)[C@H](O)[C@@H](O)[C@H]1O[C@H]1O[C@H](CO)[C@@H](O)[C@H](OC(N)=O)[C@@H]1O)c1c[nH]cn1 (some centres not stated) | 84.5 |  |
| CN1CC(=O)\N=C1\NC(=O)NC2=CC(=CC=C2)Cl | 91.6 |  |
| COc1ccc2c(c1)[C@]13CCCCC1C(C2)N(C)CC3 (some centres not stated) | 102 |  |

| SMILES | viability (top concentration 46.1 µM) | also measured |
| --- | --- | --- |
| CCCCc1oc2ccccc2c1C(=O)c1cc(I)c(OCCN(CC)CC)c(I)c1 | 95.4 |  |
| CCn1c(-c2nonc2N)nc2c(C#CC(C)(C)O)ncc(OC[C@H]3CCCNC3)c21 | 100 |  |
| N#Cc1ccc(Oc2ccc3c(c2)COB3O)cc1 | 124 |  |
| CN(C)c1nc(Cc2ccc(NC(=O)c3ccc4ccccc4c3)cc2)nc(Cl)c1CC(=O)O | 114 |  |
| COC[C@@H](NC(C)=O)C(=O)NCc1ccccc1 | 133 |  |
| CC(C)(O)C(=O)Nc1ccc([N+](=O)[O-])c(C(F)(F)F)c1 | 112 |  |
| CC(C)(OCc1nn(Cc2ccccc2)c2ccccc12)C(=O)O | 113 |  |
| CCCOc1ccc(C(=O)OCCN(CC)CC)cc1N | 115 |  |
| COc1ccc2cc3[n+](cc2c1OC)CCc1cc2c(cc1-3)OCO2 | 99.7 |  |
| Cn1c(CCCC(=O)O)nc2cc(N(CCCl)CCCl)ccc21 | 124 |  |
| CC[C@H]1/C=C\C=C/C[C@@H](C)[C@H](O)[C@@](C)(O)C(=O)[C@@H](C)[C@H](O)[C@@H](C)C(=O)[C@@H](C)[C@H](O)[C@@H](C)/C=C/C(=O)O[C@@H]2[C@H](C)[C@H](CC1)O[C@]1(CC[C@H](C)[C@H](C[C@@H](C)O)O1)[C@H]2C | 146 |  |
| CC(C)(O)/C=C\C(=O)[C@](C)(O)[C@H]1[C@H](O)C[C@]2(C)[C@@H]3CC=C4[C@@H](C=C(O)C(=O)C4(C)C)[C@]3(C)C(=O)C[C@@]12C | 83.7 |  |
| OC1=CC=C(C=C1)\C2=C\C(=O)C3=C(O2)C=C(O)C=C3O | 138 |  |
| Nc1nc(N)nc(-c2cc(Cl)ccc2Cl)n1.O=C(O)/C=C\C(=O)O | 112 |  |
| CCCCCCCCCC(=O)N[C@@H](Cc1c[nH]c2ccccc12)C(=O)N[C@H](CC(N)=O)C(=O)N[C@@H](CC(=O)O)C(=O)N[C@@H]1C(=O)NCC(=O)N[C@@H](CCCN)C(=O)N[C@@H](CC(=O)O)C(=O)N[C@H](C)C(=O)N[C@@H](CC(=O)O)C(=O)NCC(=O)N[C@H](CO)C(=O)N[C@@H]([C@@H](C)CC(=O)O)C(=O)N[C@@H](CC(=O)c2ccccc2N)C(=O)O[C@@H]1C | 101 |  |
| COc1cc(C(C)C)c(Oc2cnc(NC(CO)CO)nc2N)cc1I | 115 |  |
| Cc1cc(O)c2c(c1)C(=O)c1cc(O)cc(O)c1C2=O | 114 |  |
| CCC(C)CCCCC(=O)N[C@@H](CCN)C(=O)NC(C(=O)N[C@H](CCN)C(=O)N[C@@H]1CCNC(=O)C([C@@H](C)O)NC(=O)[C@@H](CCN)NC(=O)[C@@H](CCN)NC(=O)[C@@H](CC(C)C)NC(=O)[C@H](Cc2ccccc2)NC(=O)[C@H](CCN)NC1=O)[C@@H](C)O (some centres not stated) | 126 |  |
| COc1cc(O)c2c(c1)C(=O)c1cc(C)cc(O)c1C2=O |  | viability (top concentration 23 µM): 114 |
| C=CC(=O)Nc1cc2c(Nc3ccc(F)c(Cl)c3)ncnc2cc1C#CC(C)(C)N1CCN(C)CC1 | 75.9 |  |
| COC1=C(CC=C(C)C)C2=C(\C=C/C(=O)O2)C=C1 | 92 |  |
| NC(=O)OCC(COC(N)=O)c1ccccc1 | 110 |  |
| CN(C)C[C@@H]1CC[N]2C=C(C3=C2C=CC=C3)C/4=C(/C(=O)NC4=O)C5=C[N](CCO1)C6=C5C=CC=C6 | 89.8 |  |
| COc1cc(N2CCC(N3CCN(C)CC3)CC2)ccc1Nc1ncc(Cl)c(Nc2ccccc2[S+](=O)([O-])C(C)C)n1 | 73.5 |  |
